Here are results for one compound from paper PMC6813295, “A tumour-selective cascade activatable self-detained system for drug delivery and cancer imaging” (Nature Communications, 2019).

The format of this data set is physicochemical. As to the method: microscopy (UltraVIEW VoX).
H460 cells (1 x 10^5 cells per well) were seeded in a confocal microscopy dish (MatTek). After culture for 24 h, the cells were treated with P7 (XIAP inhibitor) (50 μM) or […] (caspase inhibitor) (10 μM) for 3 h and followed by PBS washing. And then the molecule 1 (50 μM) and 2 (50 μM) were individually added for 1 h and followed by PBS washing and fresh medium replacement.
After further 6 h of incubation, the cells were washed twice by PBS and stained with bisBenzimide H 33342 trihydrochloride (Hoechst 33342) (1 mg ml-1; Life Technologies) at 37 °C for 10 min. […]
[Cy]0 is the initial concentration of the molecule 1 or 4, [Cy]t is the concentration of the molecule 1 or […] after the irradiation of t min. Based on Beer rule, it has the linear relation between the concentration of the molecule 1 or 4 and the absorbance in maximal wavelength for the low concentration cyanine dye. […]
A0 is the absorbance in maximal wavelength before the irradiation, and At is the absorbance in maximal wavelength after the irradiation. […]
The pathway of molecule 1 entering cells. […] Subsequently, H460 cells were treated with molecule 1 (50 uM), after 2 h of incubation at 37 ℃ the medium was removed and the cells were washed three times with PBS and analysed by confocal laser scanning […]

Molecules are shown by their SMILES. Where a SMILES comes first, the peptide text is derived from it. The star is where a group is joined. X1 = CC1(C)C(=CC=C2CCCC(C=CC3=[N+](CCCCCC(=O)O)c4ccccc4C3(C)C)=C2*)N(CCCCCC(=O)O)c2ccccc21

For `CC[C@H](C)[C@H](NC(=O)[C@@H]1CCCN1C(=O)[C@@H](NC(=O)[C@H](C)N)C(C)C)C(=O)N[C@@H](C)C(=O)N[C@@H](CCC(N)=O)C(=O)N[C@@H](CCCCN)C(=O)N[C@@H](CC(=O)O)C(=O)N[C@@H](CCC(=O)O)C(=O)N[C@H](C(=O)N[C@@H](CC(=O)O)C(=O)N[C@@H](CCCCN)C(=O)N[C@@H](CC(C)C)C(=O)N[C@H](C(=O)N[C@@H](Cc1ccccc1)C(=O)N[C@@H](Cc1ccccc1)C(=O)N[C@@H](C)C(=O)N[C@@H](CCC(=O)O)C(=O)N[C@@H](CSC1=C(C=CC2=[N+](CCCCCC(=O)O)c3ccccc3C2(C)C)CCCC1=CC=C1N(CCCCCC(=O)O)c2ccccc2C1(C)C)C(=O)NCC(=O)O)C(C)C)C(C)C` [molecule 1] (H-AVPIAQKDEVDKLVFFAEC(X1)G-OH), where the note is “irradiation 6 h, pure water, Suppl. Fig. 16: xenon flash lamp, 5 μM in PBS buffer 10 mM pH 7.4, r.t., absorbance at 780 nm”, the “photobleaching after irradiation for 6 h” value stood at 42%. For the same compound, the “photodegradation rate of molecule 1 relative to that of 4” value (rate constants k from ln(A0/At) = kt, tested in parallel) is on record as 7.5 fold.
